In patent US11801272B2, “Bacillus strains improving health and performance of production animals” (Novozymes A/S, priority 2015, dated 2023):
≈ marks a conversion by molar mass, not a printed value. Like-named read-outs stand apart in the source and are kept apart here. Where a SMILES comes first, the peptide text is derived from it. Bridges are numbered along the chain shown (N, C = ends). [ ]: non-standard residue; d: D form. The star is where a group is joined. Ileψ(thiazoline)Cys = CC[C@H](C)[C@H](N)C1=N[C@H](C(=O)*)CS1; dOrn = NCCC[C@@H](N)C(=O)O

Tests used:
B. subtilis DSM 29870 = type: cell-based; conditions: Bacillus subtilis
B. subtilis DSM 29871 = type: cell-based; conditions: Bacillus subtilis
[1] = test system: B. amyloliquefaciens DSM 29869; type: cell-based; conditions: Bacillus amyloliquefaciens, DSM29869, 37° C., 20-24 h
Clostridium perfringens = type: in vivo, broiler chickens Cobb×Cobb; conditions: infected, bacitracin 50 ppm
[2] = Trial 1, DSM 29870 1.10^9 CFU/kg of feed
[3] = Trial 3, DSM 29870 5.10^8 CFU/kg of feed

SMILES | MIC (B. subtilis DSM 29870; DSM29870, read-out: MIC 1) [µg/mL] | MIC (B. subtilis DSM 29870; DSM29870, read-out: MIC 2) [µg/mL] | MIC (B. subtilis DSM 29870; DSM29870, read-out: MIC 3) [µg/mL] | MIC (B. subtilis DSM 29871; DSM29871, read-out: MIC 1) [µg/mL] | MIC (B. subtilis DSM 29871; DSM29871, read-out: MIC 2) [µg/mL] | MIC (B. subtilis DSM 29871; DSM29871, read-out: MIC 3) [µg/mL] | MIC ([1]; biological replicate 1, read-out: MIC 1) [µg/mL] | MIC ([1]; biological replicate 2, read-out: MIC 2) [µg/mL] | MIC ([1]; biological replicate 3, read-out: MIC 3) [µg/mL] | Dead birds with necrotic enteritis lesions (d1-d28) (Clostridium perfringens; [2]) [b %] | Total mortality (d1-d28) (Clostridium perfringens; [2]) [b %] | Dead birds with necrotic enteritis lesions (d1-d28) (Clostridium perfringens; Trial 2, DSM 29870 5.10^8 CFU/kg of feed) [c %] | Dead birds with necrotic enteritis lesions (d1-d28) (Clostridium perfringens; [3]) [bc %] | Total mortality (d1-d28) (Clostridium perfringens; [3]) [a %]
CN[C@H](CC(C)C)C(=O)N[C@H]1C(=O)N[C@@H](CC(N)=O)C(=O)N[C@H]2C(=O)N[C@H]3C(=O)N[C@H](C(=O)N[C@H](C(=O)O)c4cc(O)cc(O)c4-c4cc3ccc4O)[C@H](O)c3ccc(c(Cl)c3)Oc3cc2cc(c3O[C@@H]2O[C@H](CO)[C@@H](O)[C@H](O)[C@H]2O[C@H]2C[C@](C)(N)[C@H](O)[C@H](C)O2)Oc2ccc(cc2Cl)[C@H]1O [Vancomycin] | 0.25 (≈ 0.173 µM) | 0.25 (≈ 0.173 µM) | 0.25 (≈ 0.173 µM) | 0.25 (≈ 0.173 µM) | 0.25 (≈ 0.173 µM) | 0.25 (≈ 0.173 µM) | 0.25 (≈ 0.173 µM) | 0.25 (≈ 0.173 µM) | 0.25 (≈ 0.173 µM) |  |  |  |  | 
CC[C@H](C)[C@H](N)C1=N[C@H](C(=O)N[C@@H](CC(C)C)C(=O)N[C@H](CCC(=O)O)C(=O)N[C@H](C(=O)N[C@H]2CCCCNC(=O)[C@H](CC(N)=O)NC(=O)[C@@H](CC(=O)O)NC(=O)[C@H](Cc3cnc[nH]3)NC(=O)[C@@H](Cc3ccccc3)NC(=O)[C@H]([C@@H](C)CC)NC(=O)[C@@H](CCCN)NC2=O)[C@@H](C)CC)CS1 [bacitracin] ({Ileψ(thiazoline)Cys}-L[dE]IK[dOrn]I[dF]H[dD]N; lactam 4-C) |  |  |  |  |  |  |  |  |  | 1.6 | 5.0 | 6.3 | 4.7 | 15.0
